Columns and labels:
[1] = molecular target: T1, human FXR ligand-binding domain (Homo sapiens, UniProt Q96RI1); assay: FXR-SRC-1 Cofactor Recruitment Assay (Alpha Screen); format: biochemical; conditions: SRC-1 FXR interaction, 4 hours at room temperature
T1 construct: 6-HIS
T1 sequence (Q96RI1 242-472 isoform Q96RI1-2 limits assumed): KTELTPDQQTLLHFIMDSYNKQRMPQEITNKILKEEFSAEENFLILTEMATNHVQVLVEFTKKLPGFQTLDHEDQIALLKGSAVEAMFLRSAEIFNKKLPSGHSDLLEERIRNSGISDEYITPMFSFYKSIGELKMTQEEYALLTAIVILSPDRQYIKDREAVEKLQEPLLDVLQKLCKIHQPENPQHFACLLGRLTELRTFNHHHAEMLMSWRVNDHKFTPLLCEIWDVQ
T1 sequence (Q15788 600-774 partner limits assumed): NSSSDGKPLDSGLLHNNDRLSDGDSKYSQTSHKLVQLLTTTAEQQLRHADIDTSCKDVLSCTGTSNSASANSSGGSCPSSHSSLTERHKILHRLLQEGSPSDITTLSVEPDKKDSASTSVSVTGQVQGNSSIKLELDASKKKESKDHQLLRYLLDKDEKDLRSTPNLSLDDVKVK
Method: FXR-SRC-1 Cofactor Recruitment Assay
Compounds are tested in concentration-response curves by an FXR-SRC-1 Cofactor Recruitment assay using the Alpha (Amplified Luminescent Proximity Homogeneous Assay) Screen technology according to the manufacturer instructions (Perkin Elmer). Briefly, purified 6-HIS-tagged human FXR ligand-binding domain (amino acids 242-472), purified GST-tagged human SRC-1 nuclear receptor-interacting domain (amino acids 220-394), Nickel Chelate donor beads (Perkin Elmer) and Anti-GST antibody acceptor beads (Perkin Elmer) are mixed together and 12 μL per well is aliquoted into 384 well plates. Add compounds in 3 μL per well for a total assay volume of 15 μL and incubate at room temperature in the dark for 4 hours. After incubation, compounds that bind FXR and induce the interaction between the FXR and SRC-1 would bring the two bead types into proximity generating luminescence that is quantified using a Packard Fusion instrument. Calculate EC50 values for each test compound. Compounds of the invention are found to be effective in the SRC-1 FXR interaction assay with EC50 of about 365-3000 nM.

LDLR−/− mice = assay: LDLR−/− Serum Lipid Modulation; format: in vivo; conditions: 10 mg/kg once daily by oral gavage for seven days, male LDLR−/− mice on western diet
Method: LDLR−/− Serum Lipid Modulation
Acquire LDLR−/− mice from Jackson Laboratories (Stock number 002207, Bar Harbor, Me., USA). Acclimate animals for one week prior to study initiation. House mice individually in polycarbonate cages with filter tops, and maintain mice on a 12:12 hour light-dark cycle (lights on at 6:00 AM) at 21° C. Provide deionized water ad libitum and maintain for two weeks on ‘western diet’ TD 98137 Diet (42% fat, 0.15% cholesterol, Harlan Teklad) ad libitum. Optimize groups of five ten-week-old male LDLR−/− mice based on serum triglyceride and cholesterol levels. Dose groups once daily by oral gavage with various doses of the test compound for seven days. At the end of the seven-day dosing period, collect blood by tail clip for clinical chemistry assessment. Measure serum triglycerides, glucose, and total cholesterol using standard clinical chemistry instrumentation and reagents (Roche Diagnostic, Indianapolis, Ind., USA). Asphyxiate mice in a CO2 chamber. Perform cardiac puncture to collect blood samples for serum FPLC analysis. Assay pooled serum samples for lipoprotein cholesterol fraction values (VLDL, LDL, HDL) by separation on a size exclusion column (Superose® 6HR, Pharmacia Biotech AB, Uppsala, Sweden) with in-line determination of cholesterol.

EC50 [1]: 1300 nM
Compound: Cc1cc(OCc2c(-c3ccccc3OC(F)(F)F)noc2C2CC2)ccc1-c1ccc2c(C(=O)O)cn(C)c2c1 [Example 7, 6-{4-[5-Cyclopropyl-3-(2-trifluoromethoxy-phenyl)-isoxazol-4-ylmethoxy]-2-methyl-phenyl}-1-methyl-1H-indole-3-carboxylic acid]
lowers total cholesterol (LDLR−/− mice): 63%
lowers triglycerides (LDLR−/− mice): 61%
